Where two headings read alike, the source gives them in different places.
Key:
[1] = target: T1, binding of IgE to mast cells (cellular receptor) (Rattus norvegicus, UniProt P12371); assay: Binding of IgE to mast cells (125I-labelled rat IgE, mixed peritoneal cells)
T1 construct: endogenous in cells; host or cells: mixed peritoneal cells (containing mast cells)
T1 sequence (P12371 24-245): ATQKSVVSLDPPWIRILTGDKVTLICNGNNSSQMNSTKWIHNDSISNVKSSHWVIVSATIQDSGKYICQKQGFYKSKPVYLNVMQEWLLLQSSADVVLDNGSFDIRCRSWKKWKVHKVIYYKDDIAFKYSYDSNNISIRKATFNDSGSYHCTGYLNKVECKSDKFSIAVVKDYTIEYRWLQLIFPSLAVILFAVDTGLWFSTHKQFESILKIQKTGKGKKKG
T1 sequence (P13386 1-243 partner): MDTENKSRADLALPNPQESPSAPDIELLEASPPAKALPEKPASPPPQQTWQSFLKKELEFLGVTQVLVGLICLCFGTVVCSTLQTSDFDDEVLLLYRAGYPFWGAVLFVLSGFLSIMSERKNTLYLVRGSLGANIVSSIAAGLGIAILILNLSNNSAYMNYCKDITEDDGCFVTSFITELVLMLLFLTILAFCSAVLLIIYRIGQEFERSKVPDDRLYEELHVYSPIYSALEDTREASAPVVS
T1 sequence (P20411 19-86 partner): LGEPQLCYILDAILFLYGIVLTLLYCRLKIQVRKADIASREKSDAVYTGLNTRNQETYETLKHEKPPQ
Protocol: The test used to determine this activity was the method of S. M. Coutts et al. (Journal of Pharm. Sci., 68:353 (1979)). Briefly described, the method is as follows:
IgE, isolated from the ascitic fluid of a transplantable rat IgE immunocytoma, was labeled with iodine-125 under mild conditions employing the Bolton-Hunter reagent. The antibody was incubated with mixed peritoneal cells at 37° C., and the cell-bound IgE was separated from unbound label by sedimentation through an 8% sucrose-polymer solution in microsediment tubes. Conditions for the interaction of 3nM IgE with 3×10^5 mast cells in 150 μl were: incubation time, 2 hrs; pH, 6.5-7.0; and ionic strength, equivalent to 150 mM NaCl. Mixed peritoneal cells bind IgE with an affinity equal to that of purified mast cells.

[2] = tested on: rat peritoneal mast cells; assay: Inhibition of histamine release from rat mast cells; assay type: cell-based; settings: for IC50: Rattus norvegicus, Mast cell, read-out: I50 of antigen-induced secretion of histamine
Protocol: The compound of the present invention was also tested for inhibition of histamine release from rat mast cells by the method of Khandwala et al., Int. Archs Allergy appl. Immun. 69:159-168 (1982). Rat peritoneal mast cells contain receptors for IgE antibodies as well as granules which contain preformed mediators of anaphylaxis. Immunologically stimulated secretion of histamine from these cells has long been used as a model for testing antiallergic drugs. The standard asthma prophylactic drug disodium cromoglycate is a potent inhibitor in this model. A brief summary of the method is as follows:
Freshly harvested rat peritoneal mast cells were passively sensitized in vitro with rat anti-ovalbumin serum. Spontaneous histamine release or SR (in the absence of antigen) and anaphylactically-induced histamine release or AIR (in the presence of antigen) were measured after 15 minutes of incubation. Both the histamine released into the incubation medium and the residual histamine extracted from rat mast cells were measured fluorometrically.

[3] = tested on: human basophils; assay: Inhibition of histamine release from human basophils; assay type: cell-based; settings: 5 minutes preincubation before anti-human IgE challenge; read-out: calculated concentration at which 50% of anti-IgE-induced histamine release was inhibited
Protocol: 1H-benz(f)azepine-2,5-dione was also tested by a method which measures inhibition of histamine release from human basophils. The basophil is a circulating granulocyte that contains preformed mediators of anaphylaxis. These mediators are secreted after immunological stimulation of the IgE-Fc receptor system. The human basophil has thus been employed as a model cell system for asthma and allergy. The effect of the compound upon anti-IgE-medicated secretion of histamine from human basophils prepared from venous blood was carried out according to Siraganian, R. and Brodsky, M. J., Automated Histamine Analysis for in vitro testing, J. Allergy Clin. Immunol. 57:525-540 (1976). The summary of the method follows:
A fraction containing basophils was isolated by allowing freshly drawn human blood to sediment in the presence of dextran, saline and ethylenediamine tetraacetate. […] Both the histamine secreted after the challenge and that remaining in the cells were determined by an automated fluorometric assay. The influence of 1H-benz(f)azepine-2,5-dione on anti-IgE-induced release of histamine (AIR) was assessed by preincubation of the cells with the test compound for 5 minutes before immunological challenge. […] The results were expressed as the percent inhibition of AIR or as I50 value.

[4] = tested on: guinea pig lung slices; assay: Inhibition of histamine release from guinea pig lung slices; assay type: cell-based; settings: Cavia porcellus; passively sensitized lung slices, 5 minutes preincubation; read-out: concentration at which 50% of antigen-induced histamine release was inhibited (I50)
Excerpt: 1H-benz(f)azepine-2,5-dione was also found to inhibit histamine-release from guinea pig lung slices over a wide concentration range. Immunologically mediated secretion of histamine from guinea pig lung slices is mediated through the IgG1 class of antibodies, as opposed to the IgE-class of antibodies which control secretion from rat mast cells. The affect of the compound of the present invention on antigen-induced release of histamine from passively sensitized guinea pig lung slices was determined according to the procedure of Khandwala et al., Int. Archs. Allergy Appl. Immunol. 59:34-44(1979). A brief description of the method follows:
Guinea pig lung slices were passively sensitized in vitro with guinea pig anti-ovalbumin serum. […] Both the histamine released into the incubation media and the residual histamine extracted from the lung slices were measured fluorometrically. Both spontaneous and antigen-induced histamine releases were expressed as % of total extractable histamine in the lung slices. Net antigen-induced histamine release (AIR) was obtained by subtracting the spontaneous release from that in the presence of the antigen. The effect of the test compound on both SR and AIR was determined following 5 minutes preincubation of sensitized lung slices with the test compound. The concentration of the test compound required for 50% inhibition of AIR (I50) was determined.

[5] = 0 h, compound added simultaneously (at 0 minutes) with antigen
[6] = cells and drug preincubated for 5 minutes before adding antigen

Row | IC50 ([1]; 3 nM IgE, 3×10^5 mast cells, 2 hrs, 37° C., read-out: concentration at which 50% inhibition of IgE binding was observed (I50)) | inhibition at 30 µM ([1]; 30 μM, average of two experiments) | apparent affinity constant KA of IgE for its cellular receptor ([1]; in presence of 30 μM test compound, control KA 4.4×10^8 M^-1, Scatchard analysis) | IC50 [2, 5] | IC50 [2, 6] | IC50 [3] | SMILES | IC50 [4] | I50 of antigen-induced secretion of histamine [2, 6]
1 | 12 µM | 70% | 9.4e+07 M⁻¹ | 1.8 µM | 5 µM | 2 µM | O=c1ccc(=O)c2ccccc2[nH]1 [1H-benz(f)azepine-2,5-dione, 1H-Benz(f)azepine-2,5-dione] | 20 µM | –
2 | – | – | – | 3 µM | – | – | O=C(O)c1cc(=O)c2c(OCC(O)COc3cccc4oc(C(=O)O)cc(=O)c34)cccc2o1 [disodium cromoglycate, reference compound] | – | inactive

From US4477446A, “1-Benzazepines and their pharmaceutical uses” (USV Pharmaceutical Corporation, priority 1983, dated 1984)
